Key:
[1] = tested on: MOLM-14 F691L cells, FLT3 ITD and FLT3 F691L; assay: Cell proliferation assay (CellTiter-Glo), MOLM-14 F691L; type: cell-based; conditions: Homo sapiens, 72 h, 3d-Growth, GMean
Procedure, shortened: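 MOLM-14 AML cells (endogenous FLT3 ITD, AC220-selected D835Y or F691L variants) or murine Ba/F3 expressing full-length FLT3 ITD/D835Y, without IL-3 for FLT3 dependence, 1×10^4 cells/well. Eight-point 1:3 series from 1 μM final, 0.2% DMSO, 3 days at 37 °C. CellTiter-Glo luminescence (ATP) gave IC50.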

[2] = biological target: T1, FLT3-D835Y (Homo sapiens, UniProt P36888, D835Y); assay: AlphaScreen kinase assay with recombinant enzyme, FLT3-D835Y; type: biochemical; conditions: 8pt, GMean
T1 construct: purchased Invitrogen PV3967
T1 sequence (P36888 27-993 D835Y): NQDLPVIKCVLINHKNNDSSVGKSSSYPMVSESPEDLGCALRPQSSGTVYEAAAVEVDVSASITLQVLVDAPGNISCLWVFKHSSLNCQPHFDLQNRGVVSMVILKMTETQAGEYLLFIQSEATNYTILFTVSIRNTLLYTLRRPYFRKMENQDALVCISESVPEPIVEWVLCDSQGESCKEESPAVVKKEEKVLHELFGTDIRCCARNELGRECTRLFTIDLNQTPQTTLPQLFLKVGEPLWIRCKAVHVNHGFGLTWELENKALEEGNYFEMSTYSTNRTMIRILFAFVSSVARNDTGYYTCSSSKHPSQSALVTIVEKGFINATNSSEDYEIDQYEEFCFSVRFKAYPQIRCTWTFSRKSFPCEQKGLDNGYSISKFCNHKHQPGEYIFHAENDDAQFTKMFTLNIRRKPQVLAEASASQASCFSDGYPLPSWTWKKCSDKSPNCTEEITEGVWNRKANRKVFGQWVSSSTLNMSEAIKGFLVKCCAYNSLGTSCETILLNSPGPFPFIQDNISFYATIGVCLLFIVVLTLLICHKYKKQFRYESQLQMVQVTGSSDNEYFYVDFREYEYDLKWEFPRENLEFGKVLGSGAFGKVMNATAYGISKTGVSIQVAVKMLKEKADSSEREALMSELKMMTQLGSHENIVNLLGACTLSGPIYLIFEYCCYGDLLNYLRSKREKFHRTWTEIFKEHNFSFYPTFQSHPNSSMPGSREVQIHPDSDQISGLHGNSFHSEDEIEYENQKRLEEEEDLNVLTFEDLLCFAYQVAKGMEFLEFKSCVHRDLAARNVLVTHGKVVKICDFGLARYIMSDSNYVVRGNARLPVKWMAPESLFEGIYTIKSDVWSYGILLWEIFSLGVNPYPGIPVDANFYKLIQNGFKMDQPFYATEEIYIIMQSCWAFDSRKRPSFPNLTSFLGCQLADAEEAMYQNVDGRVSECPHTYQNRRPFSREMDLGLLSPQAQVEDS
Procedure, shortened: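 Inhibition was measured as a drop in AlphaScreen signal arising from phosphotyrosine-bead capture of a biotinylated poly(Glu4-Tyr) peptide (30 nM) phosphorylated by recombinant kinase. For IC50 work the stated final concentration was 10 μM for the FLT3 mutants and 100 μM for c-KIT.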

| IC50 [1] | IC50 [2] | Compound |
| --- | --- | --- |
| 0.0001 to 10 µM | 0.0001 to 10 µM | N[C@H]1CCN(C(=O)c2ncc(-c3cnc4[nH]c(-c5ccccc5)cc4c3)s2)C1 [Compound P-0054, [(3S)-3-aminopyrrolidin-1-yl]-[5-(2-phenyl-1H-pyrrolo[2,3-b]pyridin-5-yl)thiazol-2-yl]methanone] |
| 0.0001 to 10 µM | 0.0001 to 10 µM | O=C(Nc1cccc(-c2cnc3[nH]c(-c4ccccc4)cc3c2)n1)C1CNC1 [Compound P-0084, N-[6-(2-phenyl-1H-pyrrolo[2,3-b]pyridin-5-yl)-2-pyridyl]azetidine-3-carboxamide] |
| 0.0001 to 10 µM | 0.0001 to 10 µM | O=C(c1cccc(-c2cnc3[nH]c(-c4ccccc4)cc3c2)n1)N1CCC(NC2CC2)C1 (centres unmarked) [Compound P-0085, [3-(cyclopropylamino)pyrrolidin-1-yl]-[6-(2-phenyl-1H-pyrrolo[2,3-b]pyridin-5-yl)-2-pyridyl]methanone] |
| 0.0001 to 10 µM | 0.0001 to 10 µM | O=S(=O)(NC1CCNCC1)c1cccc(-c2cnc3[nH]c(-c4ccccc4)cc3c2)n1 [Compound P-0086, 6-(2-phenyl-1H-pyrrolo[2,3-b]pyridin-5-yl)-N-(4-piperidyl)pyridine-2-sulfonamide] |
| 0.0001 to 10 µM | 0.0001 to 10 µM | NC1CCC(NS(=O)(=O)c2cccc(-c3cnc4[nH]c(-c5ccccc5)cc4c3)n2)CC1 (centres unmarked) [Compound P-0088, N-(4-aminocyclohexyl)-6-(2-phenyl-1H-pyrrolo[2,3-b]pyridin-5-yl)pyridine-2-sulfonamide] |
| 0.0001 to 10 µM | 0.0001 to 10 µM | N#CC1CCN(C(=O)c2cccc(-c3cnc4[nH]c(-c5ccc(F)cc5)cc4c3)n2)C1 (centres unmarked) [Compound P-0116, 1-[6-[2-(4-fluorophenyl)-1H-pyrrolo[2,3-b]pyridin-5-yl]pyridine-2-carbonyl]pyrrolidine-3-carbonitrile] |
| 0.0001 to 10 µM | 0.0001 to 10 µM | CC(C)(C#N)NC(=O)c1cccc(-c2cnc3[nH]c(-c4cscn4)cc3c2)n1 [Compound P-0167, N-(1-cyano-1-methyl-ethyl)-6-(2-thiazol-4-yl-1H-pyrrolo[2,3-b]pyridin-5-yl)pyridine-2-carboxamide] |
| 0.0001 to 10 µM | 0.0001 to 10 µM | CC(C)(C#N)NC(=O)c1cccc(-c2cnc3[nH]c(-c4cnn(C(=O)C5CC5)c4)cc3c2)n1 [Compound P-0184, N-(1-cyano-1-methyl-ethyl)-6-[2-[1-(cyclopropanecarbonyl)pyrazol-4-yl]-1H-pyrrolo[2,3-b]pyridin-5-yl]pyridine-2-carboxamide] |
| 0.0001 to 10 µM | 0.0001 to 10 µM | CC(C)(C#N)NC(=O)c1cccc(-c2cnc3[nH]c(-c4cnn(C(F)F)c4)c(Cl)c3c2)n1 [Compound P-0185, 6-[3-chloro-2-[1-(difluoromethyl)pyrazol-4-yl]-1H-pyrrolo[2,3-b]pyridin-5-yl]-N-(1-cyano-1-methyl-ethyl)pyridine-2-carboxamide] |
| 0.0001 to 10 µM | 0.0001 to 10 µM | CC(C)(C#N)NC(=O)c1cccc(-c2cnc3[nH]c(C4=CCS(=O)(=O)CC4)cc3c2)n1 [Compound P-0186, N-(1-cyano-1-methyl-ethyl)-6-[2-(1,1-dioxo-3,6-dihydro-2H-thiopyran-4-yl)-1H-pyrrolo[2,3-b]pyridin-5-yl]pyridine-2-carboxamide] |
| 0.0001 to 10 µM | 0.0001 to 10 µM | CC(C)Oc1ccc(-c2cc3cc(-c4cccc(C(=O)NC(C)(C)C#N)n4)cnc3[nH]2)cn1 [Compound P-0190, N-(1-cyano-1-methyl-ethyl)-6-[2-(6-isopropoxy-3-pyridyl)-1H-pyrrolo[2,3-b]pyridin-5-yl]pyridine-2-carboxamide] |
| 0.0001 to 10 µM | 0.0001 to 10 µM | CC(C)Oc1ncc(-c2cc3cc(-c4cccc(C(=O)NC(C)(C)C#N)n4)cnc3[nH]2)cn1 [Compound P-0191, N-(1-cyano-1-methyl-ethyl)-6-[2-(2-isopropoxypyrimidin-5-yl)-1H-pyrrolo[2,3-b]pyridin-5-yl]pyridine-2-carboxamide] |
| 0.0001 to 10 µM | 0.0001 to 10 µM | Cc1nn(C(C)C)cc1-c1[nH]c2ncc(-c3cccc(C(=O)NC(C)(C)C#N)n3)cc2c1Cl [Compound P-0192] |
| 0.0001 to 10 µM | 0.0001 to 10 µM | CC(C)(C#N)NC(=O)c1cccc(-c2cnc3[nH]c(-c4cnn(CC(F)(F)F)c4)cc3c2)n1 [Compound P-0193, N-(1-cyano-1-methyl-ethyl)-6-[2-[1-(2,2,2-trifluoroethyl)pyrazol-4-yl]-1H-pyrrolo[2,3-b]pyridin-5-yl]pyridine-2-carboxamide] |
| 0.0001 to 10 µM | 0.0001 to 10 µM | CC(C)(C#N)NC(=O)c1cccc(-c2cnc3[nH]c(-c4ccc(C5(C#N)CC5)cc4)cc3c2)n1 [Compound P-0194, 6-[2-[4-(1-cyanocyclopropyl)phenyl]-1H-pyrrolo[2,3-b]pyridin-5-yl]-N-(1-cyano-1-methyl-ethyl)pyridine-2-carboxamide] |
| 0.0001 to 10 µM | 0.0001 to 10 µM | CC(C)(C#N)NC(=O)c1cccc(-c2cnc3[nH]c(-c4cncnc4)cc3c2)n1 [Compound P-0195, N-(1-cyano-1-methyl-ethyl)-6-(2-pyrimidin-5-yl-1H-pyrrolo[2,3-b]pyridin-5-yl)pyridine-2-carboxamide] |
| 0.0001 to 10 µM | 0.0001 to 10 µM | COc1ncc(-c2cc3cc(-c4cccc(C(=O)NC(C)(C)C#N)n4)cnc3[nH]2)cn1 [Compound P-0196, N-(1-cyano-1-methyl-ethyl)-6-[2-(2-methoxypyrimidin-5-yl)-1H-pyrrolo[2,3-b]pyridin-5-yl]pyridine-2-carboxamide] |
| 0.0001 to 10 µM | 0.0001 to 10 µM | CC(C)(C#N)NC(=O)c1cccc(-c2cnc3[nH]c(-c4ccc(N5CCOCC5)nc4)cc3c2)n1 [Compound P-0197, N-(1-cyano-1-methyl-ethyl)-6-[2-(6-morpholino-3-pyridyl)-1H-pyrrolo[2,3-b]pyridin-5-yl]pyridine-2-carboxamide] |
| 0.0001 to 10 µM | 0.0001 to 10 µM | CC(C)(C#N)NC(=O)c1cccc(-c2cnc3[nH]c(-c4ccc(C(F)(F)F)nc4)cc3c2)n1 [Compound P-0201, N-(1-cyano-1-methyl-ethyl)-6-[2-[6-(trifluoromethyl)-3-pyridyl]-1H-pyrrolo[2,3-b]pyridin-5-yl]pyridine-2-carboxamide] |
| 0.0001 to 10 µM | 0.0001 to 10 µM | CCOc1ncc(-c2cc3cc(-c4cccc(C(=O)NC(C)(C)C#N)n4)cnc3[nH]2)cn1 [Compound P-0203, N-(1-cyano-1-methyl-ethyl)-6-[2-(2-ethoxypyrimidin-5-yl)-1H-pyrrolo[2,3-b]pyridin-5-yl]pyridine-2-carboxamide] |
| 0.0001 to 10 µM | 0.0001 to 10 µM | CC(C)(C#N)NC(=O)c1cccc(-c2cnc3[nH]c(-c4cnc(C(F)(F)F)nc4)cc3c2)n1 [Compound P-0204, N-(1-cyano-1-methyl-ethyl)-6-[2-[2-(trifluoromethyl)pyrimidin-5-yl]-1H-pyrrolo[2,3-b]pyridin-5-yl]pyridine-2-carboxamide] |
| 0.0001 to 10 µM | 0.0001 to 10 µM | CCc1ncc(-c2cc3cc(-c4cccc(C(=O)NC(C)(C)C#N)n4)cnc3[nH]2)cn1 [Compound P-0205, N-(1-cyano-1-methyl-ethyl)-6-[2-(2-ethylpyrimidin-5-yl)-1H-pyrrolo[2,3-b]pyridin-5-yl]pyridine-2-carboxamide] |

Source: patent US9938273B2 (Plexxikon Inc., priority 2015, dated 2018)
